Experimental data as given in ChEMBL document CHEMBL5726443, “Bicyclic sulfonamide compounds as sodium channel inhibitors” (2017).

These compounds were tested against Sodium channel protein type 9 subunit alpha (Homo sapiens, UniProt Q15858) (assay: Compound effects were measured on a partially inactivated state of the sodium channel. Cells were clamped to a holding potential yielding 20 to 50% inactivation. To elicit sodium current, channels were activated by pulsing to ⿿10 mV for 20 msec. This voltage protocol was repeated at a rate of 0.1 Hz throughout the experiment.).
Sodium channel protein type 9 subunit alpha, sequence (Q15858 whole entry): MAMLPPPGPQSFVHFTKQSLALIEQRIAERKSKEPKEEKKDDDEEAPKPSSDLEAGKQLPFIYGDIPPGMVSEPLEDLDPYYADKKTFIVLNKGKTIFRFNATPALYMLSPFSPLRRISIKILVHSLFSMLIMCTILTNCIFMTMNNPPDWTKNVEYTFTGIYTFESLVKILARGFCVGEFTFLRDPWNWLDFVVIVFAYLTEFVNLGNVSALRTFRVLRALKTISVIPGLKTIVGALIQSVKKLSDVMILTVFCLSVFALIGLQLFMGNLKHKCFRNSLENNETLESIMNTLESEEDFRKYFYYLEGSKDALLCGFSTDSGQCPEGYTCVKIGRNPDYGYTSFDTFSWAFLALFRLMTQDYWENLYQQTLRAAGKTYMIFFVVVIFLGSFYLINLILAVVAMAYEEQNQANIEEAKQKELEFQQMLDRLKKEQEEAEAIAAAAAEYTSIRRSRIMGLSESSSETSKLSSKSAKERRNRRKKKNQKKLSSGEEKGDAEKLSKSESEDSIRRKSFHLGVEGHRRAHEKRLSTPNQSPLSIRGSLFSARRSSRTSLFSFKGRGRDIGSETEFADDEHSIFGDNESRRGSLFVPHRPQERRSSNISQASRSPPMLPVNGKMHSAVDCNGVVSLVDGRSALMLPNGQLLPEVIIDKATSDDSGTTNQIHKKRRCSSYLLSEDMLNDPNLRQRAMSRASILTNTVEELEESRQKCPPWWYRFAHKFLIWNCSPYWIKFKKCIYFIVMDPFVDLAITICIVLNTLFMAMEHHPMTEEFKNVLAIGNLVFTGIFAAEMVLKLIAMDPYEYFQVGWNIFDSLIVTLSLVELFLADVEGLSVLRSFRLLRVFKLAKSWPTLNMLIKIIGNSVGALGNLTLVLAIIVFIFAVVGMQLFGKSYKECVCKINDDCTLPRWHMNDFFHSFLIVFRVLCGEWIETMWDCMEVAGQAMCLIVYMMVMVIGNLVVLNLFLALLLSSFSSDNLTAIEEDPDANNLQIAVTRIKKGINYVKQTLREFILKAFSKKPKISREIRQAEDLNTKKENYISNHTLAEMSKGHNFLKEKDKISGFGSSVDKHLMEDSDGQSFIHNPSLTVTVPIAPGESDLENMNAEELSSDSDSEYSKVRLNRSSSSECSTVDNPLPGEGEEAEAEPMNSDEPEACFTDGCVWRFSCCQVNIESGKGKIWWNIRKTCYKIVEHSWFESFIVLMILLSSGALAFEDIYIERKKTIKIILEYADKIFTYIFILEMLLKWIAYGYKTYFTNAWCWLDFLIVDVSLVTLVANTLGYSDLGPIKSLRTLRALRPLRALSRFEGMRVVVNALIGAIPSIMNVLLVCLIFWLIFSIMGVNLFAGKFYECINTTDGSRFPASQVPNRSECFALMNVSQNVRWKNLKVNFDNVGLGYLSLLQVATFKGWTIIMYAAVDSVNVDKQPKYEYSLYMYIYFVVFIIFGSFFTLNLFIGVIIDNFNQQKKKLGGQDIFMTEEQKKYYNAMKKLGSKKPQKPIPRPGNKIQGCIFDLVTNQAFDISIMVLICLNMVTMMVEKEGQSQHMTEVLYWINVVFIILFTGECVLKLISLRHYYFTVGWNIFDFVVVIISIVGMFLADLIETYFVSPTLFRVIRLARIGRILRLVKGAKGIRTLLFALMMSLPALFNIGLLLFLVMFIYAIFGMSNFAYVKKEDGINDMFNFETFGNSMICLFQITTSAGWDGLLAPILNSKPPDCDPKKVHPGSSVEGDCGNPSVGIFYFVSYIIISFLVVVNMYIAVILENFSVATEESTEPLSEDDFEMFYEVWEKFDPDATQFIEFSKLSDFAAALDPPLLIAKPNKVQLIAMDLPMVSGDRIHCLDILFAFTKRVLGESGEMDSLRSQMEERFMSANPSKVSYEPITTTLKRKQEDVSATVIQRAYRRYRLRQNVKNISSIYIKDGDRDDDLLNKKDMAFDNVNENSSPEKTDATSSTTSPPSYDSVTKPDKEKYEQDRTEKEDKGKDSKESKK

Compound	IC50 [nM]
COc1cc(-c2ccc(F)c(C)n2)c(C)cc1-c1ncnc2cc(S(=O)(=O)Nc3ccon3)ccc12	445
COc1cc(-c2cccc(Cl)c2)c(F)cc1-c1ncnc2cc(S(=O)(=O)Nc3ncc(F)cn3)ccc12	107
COc1cc(-c2cccc(C(F)(F)F)c2)c(C)cc1-c1nccc2cc(S(=O)(=O)Nc3ccon3)ccc12	60.9

Second part, the compound after the results:

IC50 [nM]	Compound
9.2	COc1cc(-c2ccc(F)c(Cl)c2)c(C#N)cc1-c1nccc2cc(S(=O)(=O)Nc3nncs3)ccc12
18.6	COc1cc(-c2ccc(Cl)c(F)c2)c(C#N)cc1-c1nccc2cc(S(=O)(=O)Nc3nncs3)ccc12
